According to ChEMBL document CHEMBL1201862, “PubChem BioAssay data set” (2004):
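Five compound concentrations were applied to cells in 96-well plates for 48 hours; endpoints were derived by simple linear interpolation of the resulting dose-response curve. GI50 is the concentration that inhibits growth by half.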 Calls of active or inactive are those of the source. No stated cut-off is given here; in the data, active = GI50 up to about 1.1 µM and inactive = higher.

Legend:
Assay in all cases: NCI tumour cell line growth inhibition, 48 h
SK-MEL-2 = system: SK-MEL-2
DMS-114 = system: DMS-114
KM12 = system: KM12
SK-MEL-28 = system: SK-MEL-28
NCI-H460 = system: NCI-H460
HOP-92 = system: HOP-92
CAKI-1 = system: CAKI-1
OVCAR-3 = system: OVCAR-3
LOX IMVI = system: LOX IMVI
OVCAR-8 = system: OVCAR-8
RPMI-8226 = system: RPMI-8226
SF-268 = system: SF-268
UACC-62 = system: UACC-62
RXF 393 = system: RXF 393

Measured: GI50

Cc1cccc(C)c1N1C(=O)C(=O)C(c2nc3ccccc3s2)/C(=N\N)C1=O (centres undefined)
inactive: SK-MEL-2 > 100 µM | DMS-114 60.8 µM | KM12 52 µM | SK-MEL-28 > 100 µM | NCI-H460 > 100 µM | HOP-92 > 100 µM | CAKI-1 > 100 µM | OVCAR-3 > 100 µM | LOX IMVI > 100 µM | OVCAR-8 > 100 µM | RPMI-8226 39.9 µM | SF-268 > 100 µM | UACC-62 77.4 µM

CC(C)(C)C1=CC(=C2C(=O)C(=O)c3ccccc3C2=O)C=C(C(C)(C)C)C1=O
inactive: SK-MEL-2 > 100 µM | DMS-114 31.3 µM | KM12 > 100 µM | SK-MEL-28 > 100 µM | NCI-H460 85.5 µM | HOP-92 28.8 µM | CAKI-1 52.1 µM | OVCAR-3 33 µM | LOX IMVI 37.1 µM | OVCAR-8 51.3 µM | RPMI-8226 23.8 µM | SF-268 > 100 µM | UACC-62 32.7 µM

Cc1ccccc1Cn1nc2ccccc2cc1=O
inactive: SK-MEL-2 > 100 µM | DMS-114 > 100 µM | KM12 > 100 µM | SK-MEL-28 > 100 µM | NCI-H460 > 100 µM | HOP-92 > 100 µM | CAKI-1 > 100 µM | OVCAR-3 > 100 µM | LOX IMVI > 100 µM | OVCAR-8 > 100 µM | RPMI-8226 > 100 µM | SF-268 > 100 µM | UACC-62 > 100 µM

OCCSCC/C(=N\N=C(/CCSCCO)c1ccccc1)c1ccccc1
inactive: SK-MEL-2 84.7 µM | RXF 393 36.2 µM | DMS-114 > 100 µM | KM12 66.8 µM | SK-MEL-28 > 100 µM | NCI-H460 69.5 µM | HOP-92 31.1 µM | CAKI-1 32.1 µM | OVCAR-3 > 100 µM | LOX IMVI 93.8 µM | OVCAR-8 89.5 µM | RPMI-8226 39.4 µM | SF-268 > 100 µM | UACC-62 > 100 µM

CC(C)NC(C)C(C)c1ccccc1 (centres undefined)
inactive: SK-MEL-2 > 100 µM | RXF 393 > 100 µM | DMS-114 > 100 µM | KM12 > 100 µM | SK-MEL-28 > 100 µM | NCI-H460 > 100 µM | CAKI-1 > 100 µM | OVCAR-3 > 100 µM | LOX IMVI > 100 µM | OVCAR-8 > 100 µM | RPMI-8226 > 100 µM | SF-268 > 100 µM | UACC-62 > 100 µM

COC1[C@H](NC(=O)OC(C)(C)C)C(=O)N1Cc1ccccc1 (some centres undefined)
inactive: SK-MEL-2 > 100 µM | RXF 393 > 100 µM | DMS-114 > 100 µM | KM12 > 100 µM | SK-MEL-28 > 100 µM | NCI-H460 > 100 µM | HOP-92 74.6 µM | OVCAR-3 > 100 µM | LOX IMVI > 100 µM | OVCAR-8 > 100 µM | RPMI-8226 > 100 µM | SF-268 > 100 µM | UACC-62 > 100 µM
